# Like-named read-outs stand apart in the source and are kept apart here.
# Target: BRAF V600E (Homo sapiens, UniProt P15056, V600E)
# Test: HiBiT cellular BRAF^V600E degradation assay
# Type: cell-based
# Details: for DC50: concentration at which 50% of total cellular BRAF^V600E is degraded; for Emax: read-out: HiBit 24 h Emax
# [1] = A375.10 cells, 24 h, residual protein remaining in the cell
# BRAF V600E, sequence (P15056 whole entry V600E): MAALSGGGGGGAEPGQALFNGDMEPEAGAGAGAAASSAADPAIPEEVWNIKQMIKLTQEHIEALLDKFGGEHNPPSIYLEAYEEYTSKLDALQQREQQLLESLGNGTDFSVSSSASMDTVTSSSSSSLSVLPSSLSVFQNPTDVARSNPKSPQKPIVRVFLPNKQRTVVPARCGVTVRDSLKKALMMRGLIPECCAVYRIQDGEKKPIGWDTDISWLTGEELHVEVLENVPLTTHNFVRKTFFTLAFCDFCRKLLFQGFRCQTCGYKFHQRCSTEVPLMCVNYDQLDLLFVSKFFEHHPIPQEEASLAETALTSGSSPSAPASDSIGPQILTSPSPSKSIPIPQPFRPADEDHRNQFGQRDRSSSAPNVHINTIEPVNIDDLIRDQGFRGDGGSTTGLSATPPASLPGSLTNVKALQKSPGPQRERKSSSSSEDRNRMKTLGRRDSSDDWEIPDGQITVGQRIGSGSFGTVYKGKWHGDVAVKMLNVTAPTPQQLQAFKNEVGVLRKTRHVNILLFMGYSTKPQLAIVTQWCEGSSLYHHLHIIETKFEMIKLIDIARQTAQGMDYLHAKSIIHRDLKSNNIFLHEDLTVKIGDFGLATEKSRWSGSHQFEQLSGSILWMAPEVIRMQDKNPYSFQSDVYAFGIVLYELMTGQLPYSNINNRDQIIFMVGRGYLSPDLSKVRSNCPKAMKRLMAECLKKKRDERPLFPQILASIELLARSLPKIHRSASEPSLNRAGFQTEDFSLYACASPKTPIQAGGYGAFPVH
Compound,"DC50 (A375.10 cells, 24 h) [µM]",Emax [1] [%],Emax [%]
"CCN(C)S(=O)(=O)Nc1ccc(F)c(Oc2ccc3ncn([C@H]4COC5(CCN(C(=O)CC6(O)CCN(c7cc8c(cc7F)c(N7CCC(=O)NC7=O)nn8C)CC6)CC5)C4)c(=O)c3c2N)c1C#N [Example 182, (3R)-3-[5-amino-6-[2-cyano-3-[[ethyl(methyl)sulfamoyl]amino]-6-fluorophenoxy]-4-oxoquinazolin-3-yl]-8-[2-[1-[3-(2,4-dioxo-1,3-diazinan-1-yl)-5-fluoro-1-methylindazol-6-yl]-4-hydroxypiperidin-4-yl]acetyl]-1-oxa-8-azaspiro[4.5]decane]",0.0162,19.8,–
"CCN(C)S(=O)(=O)Nc1ccc(F)c(Oc2ccc3ncn([C@H]4COC5(CCN(C(=O)CC6(O)CCN(c7cc8c(cc7F)c(N7CCC(=O)NC7=O)nn8C)CC6)CC5)C4)c(=O)c3c2O)c1C#N [Example 186, (3R)-3-[6-[2-cyano-3-[[ethyl(methyl)sulfamoyl]amino]-6-fluorophenoxy]-5-hydroxy-4-oxoquinazolin-3-yl]-8-[2-[1-[3-(2,4-dioxo-1,3-diazinan-1-yl)-5-fluoro-1-methylindazol-6-yl]-4-hydroxypiperidin-4-yl]acetyl]-1-oxa-8-azaspiro[4.5]decane]",0.0163,25.1,–
"Cn1nc(N2CCC(=O)NC2=O)c2cc(F)c(N3CCC(O)(CC(=O)N4CCC5(CC4)C[C@@H](n4cnc6ccc(Oc7c(F)ccc(NS(=O)(=O)N8CCCCC8)c7C#N)cc6c4=O)CO5)CC3)cc21 [Example 187, N-[2-cyano-3-[3-[(3R)-8-[2-[1-[3-(2,4-dioxo-1,3-diazinan-1-yl)-5-fluoro-1-methylindazol-6-yl]-4-hydroxypiperidin-4-yl]acetyl]-1-oxa-8-azaspiro[4.5]decan-3-yl]-4-oxoquinazolin-6-yl]oxy-4-fluorophenyl]piperidine-1-sulfonamide]",0.0387,24.1,–
"Cn1nc(N2CCC(=O)NC2=O)c2cc(F)c(N3CCC(O)(CC(=O)N4CCC5(CC4)C[C@@H](n4cnc6ccc(Oc7c(F)ccc(NS(=O)(=O)C8CCCCC8)c7C#N)cc6c4=O)CO5)CC3)cc21 [Example 188, N-[2-cyano-3-[3-[(3R)-8-[2-[1-[3-(2,4-dioxo-1,3-diazinan-1-yl)-5-fluoro-1-methylindazol-6-yl]-4-hydroxypiperidin-4-yl]acetyl]-1-oxa-8-azaspiro[4.5]decan-3-yl]-4-oxoquinazolin-6-yl]oxy-4-fluorophenyl]cyclohexanesulfonamide]",0.0406,–,27.3
"Cn1nc(N2CCC(=O)NC2=O)c2cc(F)c(N3CCC(O)(CC(=O)N4CCC5(CC4)C[C@@H](n4cnc6ccc(Oc7c(F)ccc(NS(=O)(=O)N8CC9CC9C8)c7C#N)cc6c4=O)CO5)CC3)cc21 (stereo partly drawn) [Example 194, N-[2-cyano-3-[3-[(3R)-8-[2-[1-[3-(2,4-dioxo-1,3-diazinan-1-yl)-5-fluoro-1-methylindazol-6-yl]-4-hydroxypiperidin-4-yl]acetyl]-1-oxa-8-azaspiro[4.5]decan-3-yl]-4-oxoquinazolin-6-yl]oxy-4-fluorophenyl]-3-azabicyclo[3.1.0]hexane-3-sulfonamide]",0.0428,26.2,–
"Cn1nc(N2CCC(=O)NC2=O)c2cc(F)c(N3CCC(O)(CC(=O)N4CCC5(CC4)C[C@@H](n4cnc6ccc(Oc7c(F)ccc(NS(=O)(=O)N8CCCC8)c7C#N)cc6c4=O)CO5)CC3)cc21 [Example 195, N-[2-cyano-3-[3-[(3R)-8-[2-[1-[3-(2,4-dioxo-1,3-diazinan-1-yl)-5-fluoro-1-methylindazol-6-yl]-4-hydroxypiperidin-4-yl]acetyl]-1-oxa-8-azaspiro[4.5]decan-3-yl]-4-oxoquinazolin-6-yl]oxy-4-fluorophenyl]pyrrolidine-1-sulfonamide]",0.016,26.3,–
"CCN(C)S(=O)(=O)Nc1ccc(F)c(Oc2ccc3ncn(-c4cnc(N5CCN(C(=O)CC6(O)CCN(c7cc8c(cc7F)c(N7CCC(=O)NC7=O)nn8C)CC6)CC5)nc4)c(=O)c3c2)c1C#N [Example 199, 6-[2-cyano-3-[[ethyl(methyl)sulfamoyl]amino]-6-fluorophenoxy]-3-[2-[4-[2-[1-[3-(2,4-dioxo-1,3-diazinan-1-yl)-5-fluoro-1-methylindazol-6-yl]-4-hydroxypiperidin-4-yl]acetyl]piperazin-1-yl]pyrimidin-5-yl]-4-oxoquinazoline]",0.0217,27.9,–
"CCN(C)S(=O)(=O)Nc1ccc(F)c(Oc2ccc3ncn([C@H]4COC5(CCC(N6CCC(c7cc8c(cc7F)c(N7CCC(=O)NC7=O)nn8C)CC6)CC5)C4)c(=O)c3c2)c1C#N (stereo partly drawn) [Example 200, 6-[2-cyano-3-[[ethyl(methyl)sulfamoyl]amino]-6-fluorophenoxy]-3-[(3R)-8-[4-[3-(2,4-dioxo-1,3-diazinan-1-yl)-5-fluoro-1-methylindazol-6-yl]piperidin-1-yl]-1-oxaspiro[4.5]decan-3-yl]-4-oxoquinazoline]",0.0159,26.9,–

# Further lines, with some results ahead:
"DC50 (A375.10 cells, 24 h) [µM]",Emax [1] [%],Compound,Emax [%]
0.0235,24.5,"CC(C)S(=O)(=O)Nc1ccc(F)c(Oc2ccc3ncn([C@H]4COC5(CCN(C(=O)CC6(O)CCN(c7cc8c(cc7F)c(N7CCC(=O)NC7=O)nn8C)CC6)CC5)C4)c(=O)c3c2)c1C#N [Example 189, N-[2-cyano-3-[3-[(3R)-8-[2-[1-[3-(2,4-dioxo-1,3-diazinan-1-yl)-5-fluoro-1-methylindazol-6-yl]-4-hydroxypiperidin-4-yl]acetyl]-1-oxa-8-azaspiro[4.5]decan-3-yl]-4-oxoquinazolin-6-yl]oxy-4-fluorophenyl]propane-2-sulfonamide]",–
0.0393,24.7,"Cn1nc(N2CCC(=O)NC2=O)c2cc(F)c(N3CCC(O)(CC(=O)N4CCC5(CC4)C[C@@H](n4cnc6ccc(Oc7c(F)ccc(NS(=O)(=O)N8CC[C@@H](F)C8)c7C#N)cc6c4=O)CO5)CC3)cc21 [Example 190, (3R)—N-[2-cyano-3-[3-[(3R)-8-[2-[1-[3-(2,4-dioxo-1,3-diazinan-1-yl)-5-fluoro-1-methylindazol-6-yl]-4-hydroxypiperidin-4-yl]acetyl]-1-oxa-8-azaspiro[4.5]decan-3-yl]-4-oxoquinazolin-6-yl]oxy-4-fluorophenyl]-3-fluoropyrrolidine-1-sulfonamide]",–
0.0271,26.8,"Cn1nc(N2CCC(=O)NC2=O)c2cc(F)c(N3CCC(O)(CC(=O)N4CCC5(CC4)C[C@@H](n4cnc6ccc(Oc7c(F)ccc(NS(=O)(=O)C8CCCC8)c7C#N)cc6c4=O)CO5)CC3)cc21 [Example 191, N-[2-cyano-3-[3-[(3R)-8-[2-[1-[3-(2,4-dioxo-1,3-diazinan-1-yl)-5-fluoro-1-methylindazol-6-yl]-4-hydroxypiperidin-4-yl]acetyl]-1-oxa-8-azaspiro[4.5]decan-3-yl]-4-oxoquinazolin-6-yl]oxy-4-fluorophenyl]cyclopentanesulfonamide]",–
0.0317,32.2,"Cn1nc(N2CCC(=O)NC2=O)c2cc(F)c(N3CCC(O)(CC(=O)N4CCC5(CC4)C[C@@H](n4cnc6ccc(Oc7c(F)ccc(NS(=O)(=O)C8CC8)c7C#N)cc6c4=O)CO5)CC3)cc21 [Example 192, N-[2-cyano-3-[3-[(3R)-8-[2-[1-[3-(2,4-dioxo-1,3-diazinan-1-yl)-5-fluoro-1-methylindazol-6-yl]-4-hydroxypiperidin-4-yl]acetyl]-1-oxa-8-azaspiro[4.5]decan-3-yl]-4-oxoquinazolin-6-yl]oxy-4-fluorophenyl]cyclopropanesulfonamide]",–
0.142,33.8,"COC1CN(S(=O)(=O)Nc2ccc(F)c(Oc3ccc4ncn([C@H]5COC6(CCN(C(=O)CC7(O)CCN(c8cc9c(cc8F)c(N8CCC(=O)NC8=O)nn9C)CC7)CC6)C5)c(=O)c4c3)c2C#N)C1 [Example 193, N-[2-cyano-3-[3-[(3R)-8-[2-[1-[3-(2,4-dioxo-1,3-diazinan-1-yl)-5-fluoro-1-methylindazol-6-yl]-4-hydroxypiperidin-4-yl]acetyl]-1-oxa-8-azaspiro[4.5]decan-3-yl]-4-oxoquinazolin-6-yl]oxy-4-fluorophenyl]-3-methoxyazetidine-1-sulfonamide]",–
9.99,89.4,"Cn1nc(N2CCC(=O)NC2=O)c2cc(F)c(N3CCC(O)(CC(=O)N4CCC5(CC4)C[C@@H](n4cnc6ccc(Oc7c(F)ccc(NS(=O)(=O)N8CCC8)c7C#N)cc6c4=O)CO5)CC3)cc21 [Example 196, N-[2-cyano-3-[3-[(3R)-8-[2-[1-[3-(2,4-dioxo-1,3-diazinan-1-yl)-5-fluoro-1-methylindazol-6-yl]-4-hydroxypiperidin-4-yl]acetyl]-1-oxa-8-azaspiro[4.5]decan-3-yl]-4-oxoquinazolin-6-yl]oxy-4-fluorophenyl]azetidine-1-sulfonamide]",–
0.0257,27.8,"CN(C1CC1)S(=O)(=O)Nc1ccc(F)c(Oc2ccc3ncn([C@H]4COC5(CCN(C(=O)CC6(O)CCN(c7cc8c(cc7F)c(N7CCC(=O)NC7=O)nn8C)CC6)CC5)C4)c(=O)c3c2)c1C#N [Example 197, (3R)-3-[6-[2-cyano-3-[[cyclopropyl(methyl)sulfamoyl]amino]-6-fluorophenoxy]-4-oxoquinazolin-3-yl]-8-[2-[1-[3-(2,4-dioxo-1,3-diazinan-1-yl)-5-fluoro-1-methylindazol-6-yl]-4-hydroxypiperidin-4-yl]acetyl]-1-oxa-8-azaspiro[4.5]decane]",–
0.0287,28.1,"Cn1nc(N2CCC(=O)NC2=O)c2cc(F)c(N3CCC(O)(CC(=O)N4CCC5(CC4)C[C@@H](n4cnc6ccc(Oc7c(F)ccc(NS(=O)(=O)C8CCC8)c7C#N)cc6c4=O)CO5)CC3)cc21 [Example 198, N-[2-cyano-3-[3-[(3R)-8-[2-[1-[3-(2,4-dioxo-1,3-diazinan-1-yl)-5-fluoro-1-methylindazol-6-yl]-4-hydroxypiperidin-4-yl]acetyl]-1-oxa-8-azaspiro[4.5]decan-3-yl]-4-oxoquinazolin-6-yl]oxy-4-fluorophenyl]cyclobutanesulfonamide]",–

# From patent publication US12486253B2, “Therapeutics for the degradation of mutant BRAF” (C4 THERAPEUTICS, INC., priority 2021, dated 2025)
